In the oligonucleotide strings, read from the 5' end, every base follows the letter of its sugar. An asterisk marks phosphorothioate; unmarked linkages are phosphodiester. Other units and linkages are bracketed, terminal groups are in braces. A string of capitals states the bases alone. d = 2'-deoxy (DNA); m = 2'-O-methyl
Target: T1, human TLR9 (Homo sapiens, UniProt Q9NR96)
T1 construct: HA; host or cells: 293XL-hTLR9-HA (HEK293)
T1 sequence (Q9NR96 26-1032): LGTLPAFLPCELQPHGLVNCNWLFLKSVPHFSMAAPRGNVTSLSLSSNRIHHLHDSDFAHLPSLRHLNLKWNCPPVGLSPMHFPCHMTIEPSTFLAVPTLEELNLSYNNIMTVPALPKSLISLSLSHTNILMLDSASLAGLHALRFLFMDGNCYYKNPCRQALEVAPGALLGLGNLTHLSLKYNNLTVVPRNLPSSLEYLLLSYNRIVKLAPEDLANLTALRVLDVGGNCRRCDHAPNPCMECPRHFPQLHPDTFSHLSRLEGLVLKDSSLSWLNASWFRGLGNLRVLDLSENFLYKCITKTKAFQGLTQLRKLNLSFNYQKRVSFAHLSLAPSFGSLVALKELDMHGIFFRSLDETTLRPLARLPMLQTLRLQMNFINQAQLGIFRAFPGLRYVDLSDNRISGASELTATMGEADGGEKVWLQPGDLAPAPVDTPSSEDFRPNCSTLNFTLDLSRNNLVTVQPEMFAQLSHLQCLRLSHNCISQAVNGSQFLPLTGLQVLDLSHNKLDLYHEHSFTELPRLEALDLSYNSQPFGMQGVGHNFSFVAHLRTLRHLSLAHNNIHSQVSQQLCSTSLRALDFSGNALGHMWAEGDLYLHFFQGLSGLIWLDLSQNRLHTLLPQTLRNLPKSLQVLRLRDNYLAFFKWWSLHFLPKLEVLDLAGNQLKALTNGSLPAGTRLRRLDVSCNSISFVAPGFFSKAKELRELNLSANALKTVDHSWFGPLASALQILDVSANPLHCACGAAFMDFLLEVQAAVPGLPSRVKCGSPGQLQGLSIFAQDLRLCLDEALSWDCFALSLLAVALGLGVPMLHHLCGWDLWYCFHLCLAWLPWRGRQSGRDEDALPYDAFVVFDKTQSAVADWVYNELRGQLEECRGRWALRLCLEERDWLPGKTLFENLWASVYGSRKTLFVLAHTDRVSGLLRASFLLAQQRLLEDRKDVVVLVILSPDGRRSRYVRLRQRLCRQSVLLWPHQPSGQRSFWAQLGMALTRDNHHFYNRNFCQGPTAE
Assay: HEK-TLR9 NF-κB-luciferase reporter, ODN2006 stimulation
Type: cell-based
Settings: for TLR9 100 nM (averaged NF-κB-Luciferase level relative to ODN2006 condition): ASO 100 nM; for TLR9 100 nM (averaged NF-κB-Luciferase level relative to ODN2006 condition) / TLR9 500 nM (averaged NF-κB-Luciferase level relative to ODN2006 condition): relative to ODN2006 only, given as fraction; for TLR9 500 nM (averaged NF-κB-Luciferase level relative to ODN2006 condition): ASO 500 nM; for TLR9-500 nM: averaged NF-κB-Luciferase relative to ODN2006: HEK-TLR9, 500 nM ASO 45 min, then 200 nM ODN2006 overnight, percentage of ODN2006 only

For “CATCCACCACGTCGTC (antisense; LNA-modified, pattern not given here) [EGFR-3266 LNA V1]”, the “TLR9 100 nM (averaged NF-κB-Luciferase level relative to ODN2006 condition)” value was 0.722 and the “TLR9 500 nM (averaged NF-κB-Luciferase level relative to ODN2006 condition)” value was 0.620.

For “GCACTTCAGTCTGAGC (antisense; LNA-modified, pattern not given here) [MB21D1-719 LNA KL]”, the “TLR9 100 nM (averaged NF-κB-Luciferase level relative to ODN2006 condition)” value was 0.673 and the “TLR9 500 nM (averaged NF-κB-Luciferase level relative to ODN2006 condition)” value was 0.144.

In the case of “TTCAGGCGCTGCCTTG (antisense; LNA-modified, pattern not given here) [CAMSAP1-2709 LNA V1]”, the “TLR9 100 nM (averaged NF-κB-Luciferase level relative to ODN2006 condition)” value was 1.202 and the “TLR9 500 nM (averaged NF-κB-Luciferase level relative to ODN2006 condition)” value was 0.494.

With “AGTGTTGAGATACTCG (antisense; LNA-modified, pattern not given here) [EGFR-3652 LNA KL]” the “TLR9 100 nM (averaged NF-κB-Luciferase level relative to ODN2006 condition)” value was 0.982 and the “TLR9 500 nM (averaged NF-κB-Luciferase level relative to ODN2006 condition)” value was 0.540.

For “mA*mG*mU*mC*mU*C*C*A*T*G*T*C*C*C*A*mG*mG*mC*mC*mU (mA*mG*mU*mC*mU*dC*dC*dA*dT*dG*dT*dC*dC*dC*dA*mG*mG*mC*mC*mU; antisense) [[CDKN2B-AS1]2232]”, the “TLR9-500 nM: averaged NF-κB-Luciferase relative to ODN2006” value was 122.20%.

“CTGCAGCTTCCTTGTC (antisense; LNA-modified, pattern not given here) [CTNN2B-2136 LNA V1]” was tested, and the “TLR9 100 nM (averaged NF-κB-Luciferase level relative to ODN2006 condition)” value was 0.358 and the “TLR9 500 nM (averaged NF-κB-Luciferase level relative to ODN2006 condition)” value was 0.263.

For “ACCACGTCTGCTCTAA (antisense; LNA-modified, pattern not given here) [CAMSAP1-1635 LNA KL]”, the “TLR9 100 nM (averaged NF-κB-Luciferase level relative to ODN2006 condition)” value was 0.842 and the “TLR9 500 nM (averaged NF-κB-Luciferase level relative to ODN2006 condition)” value was 0.162.

In the case of “TGGTCCACAACCCCTT (antisense; LNA-modified, pattern not given here) [MB21D1-697 LNA V1]”, the “TLR9 100 nM (averaged NF-κB-Luciferase level relative to ODN2006 condition)” value was 1.018 and the “TLR9 500 nM (averaged NF-κB-Luciferase level relative to ODN2006 condition)” value was 0.587.

“ATCTGGCAGCCCATCA (antisense; LNA-modified, pattern not given here) [CTNN2B-2516 LNA V1]” was tested, and the “TLR9 100 nM (averaged NF-κB-Luciferase level relative to ODN2006 condition)” value was 1.248 and the “TLR9 500 nM (averaged NF-κB-Luciferase level relative to ODN2006 condition)” value was 0.603.

With “GTCAAGGGCATATCCT (antisense; LNA-modified, pattern not given here) [HPRT LNA-732 KL]” the “TLR9 100 nM (averaged NF-κB-Luciferase level relative to ODN2006 condition)” value was 0.844 and the “TLR9 500 nM (averaged NF-κB-Luciferase level relative to ODN2006 condition)” value was 0.387.

“mC*mA*mG*mU*mC*T*C*C*A*T*G*T*C*C*C*mA*mG*mG*mC*mC (mC*mA*mG*mU*mC*dT*dC*dC*dA*dT*dG*dT*dC*dC*dC*mA*mG*mG*mC*mC; antisense) [[CDKN2B-AS1]2233]” was tested, and the “TLR9-500 nM: averaged NF-κB-Luciferase relative to ODN2006” value was 55.13%.

With “mA*mU*mU*mU*mC*C*A*C*A*T*G*C*C*C*A*mG*mU*mG*mU*mU (AUUUCCACATGCCCAGUGUU; antisense; sugars from the 5' end m5 d10 m5, all phosphorothioate, methylation of C not given here) [[CDKN2B-AS1]626]” the “TLR9-500 nM: averaged NF-κB-Luciferase relative to ODN2006” value was 63.65%.

In the case of “TCTTCATCGGCCCTGC (antisense; LNA-modified, pattern not given here) [CAMSAP1-2112 LNA V1]”, the “TLR9 100 nM (averaged NF-κB-Luciferase level relative to ODN2006 condition)” value was 0.921 and the “TLR9 500 nM (averaged NF-κB-Luciferase level relative to ODN2006 condition)” value was 0.445.

“AGGTCTTGGCTTCGTG (antisense; LNA-modified, pattern not given here) [MB21D1-524 LNA V1]” was tested, and the “TLR9 100 nM (averaged NF-κB-Luciferase level relative to ODN2006 condition)” value was 0.975 and the “TLR9 500 nM (averaged NF-κB-Luciferase level relative to ODN2006 condition)” value was 0.383.

In the case of “mA*mA*mG*mC*mA*G*T*C*T*C*C*A*T*G*T*mC*mC*mC*mA*mG (mA*mA*mG*mC*mA*dG*dT*dC*dT*dC*dC*dA*dT*dG*dT*mC*mC*mC*mA*mG; antisense) [[CDKN2B-AS1]2236]”, the “TLR9-500 nM: averaged NF-κB-Luciferase relative to ODN2006” value was 69.71%.

For “GGAGGTCTTGGCTTCG (antisense; LNA-modified, pattern not given here) [MB21D1-526 LNA V1]”, the “TLR9 100 nM (averaged NF-κB-Luciferase level relative to ODN2006 condition)” value was 0.912 and the “TLR9 500 nM (averaged NF-κB-Luciferase level relative to ODN2006 condition)” value was 0.674.

“TCCATACCCAAGGCAT (antisense; LNA-modified, pattern not given here) [CTNN2B-2446 LNA V1]” was tested, and the “TLR9 100 nM (averaged NF-κB-Luciferase level relative to ODN2006 condition)” value was 1.075 and the “TLR9 500 nM (averaged NF-κB-Luciferase level relative to ODN2006 condition)” value was 0.951.

“AATCCAACAAAGTCTG (antisense; LNA-modified, pattern not given here) [HPRT LNA-692 KL]” was tested, and the “TLR9 100 nM (averaged NF-κB-Luciferase level relative to ODN2006 condition)” value was 1.050 and the “TLR9 500 nM (averaged NF-κB-Luciferase level relative to ODN2006 condition)” value was 0.529.

For “TGTCTGGAAGCTTCCT (antisense; LNA-modified, pattern not given here) [CTNN2B-808 LNA V1]”, the “TLR9 100 nM (averaged NF-κB-Luciferase level relative to ODN2006 condition)” value was 1.320 and the “TLR9 500 nM (averaged NF-κB-Luciferase level relative to ODN2006 condition)” value was 0.648.

Reference: US20240384268A1, “Oligonucleotides” (Hudson Institute of Medical Research, priority 2021, published 2024)
